Experimental findings from the supplement of paper PMC10307832 are described below.

Holding throughout (assay): relative viability (nuclei count vs DMSO), 5 days (fraction); higher = more cells survive
Compound in the test “VE-821 + Phenformin”: CS(=O)(=O)c1ccc(-c2cnc(N)c(C(=O)Nc3ccccc3)n2)cc1 [VE-821] + N=C(N)NC(=N)NCCc1ccccc1 [Phenformin] (partner 250 µM)
In outline: (§1)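 Lung cancer cell lines, seeded in 1536-well plates, were treated the following day by pin tool with a single drug or with five library-drug doses (not always all listed) in √10 steps on top of a fixed anchor-drug dose. Cells were fixed and nuclei stained in one step after 5 days, and nuclei were counted. Relative viability is the nuclei count for treated wells divided by that for vehicle wells, reported as medians of duplicate plates.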

Compound in the test “VE-821 + OSI-027”: CS(=O)(=O)c1ccc(-c2cnc(N)c(C(=O)Nc3ccccc3)n2)cc1 [VE-821] + COc1cccc2cc(-c3nc([C@H]4CC[C@H](C(=O)O)CC4)n4ncnc(N)c34)[nH]c12 [OSI-027] (partner 0.5 µM)
In outline:
as §1

Compound in the test “Ruxolitinib + Bortezomib”: N#CC[C@H](C1CCCC1)n1cc(-c2ncnc3[nH]ccc23)cn1 [Ruxolitinib] + CC(C)C[C@H](NC(=O)[C@H](Cc1ccccc1)NC(=O)c1cnccn1)B(O)O [Bortezomib] (partner 0.002 µM)
In outline:
as §1

Compound in the test “Vismodegib + Bortezomib”: CS(=O)(=O)c1ccc(C(=O)Nc2ccc(Cl)c(-c3ccccn3)c2)c(Cl)c1 [Vismodegib] + CC(C)C[C@H](NC(=O)[C@H](Cc1ccccc1)NC(=O)c1cnccn1)B(O)O [Bortezomib] (partner 0.002 µM)
The method, boiled down:
as §1

As to NCI-H1623, the relative viability in the test with VE-821 + Phenformin (first compound 0.08 µM) stood at 0.564; with VE-821 + Phenformin (first compound 0.253 µM), 0.557; with VE-821 + Phenformin (first compound 0.8 µM), 0.449; in the test with VE-821 + Phenformin (first compound 2.53 µM), 0.575; with VE-821 + Phenformin (first compound 8 µM), 0.497; with VE-821 + OSI-027 (first compound 0.08 µM), 0.48. In addition, the relative viability in the test with VE-821 + OSI-027 (first compound 0.253 µM) stood at 0.489; with VE-821 + OSI-027 (first compound 0.8 µM), 0.543; with VE-821 + OSI-027 (first compound 2.53 µM), 0.454; with VE-821 + OSI-027 (first compound 8 µM) it was 0.379.

In the case of NCI-H1648, the relative viability with VE-821 + OSI-027 (first compound 0.08 µM) came out at 0.291; with VE-821 + OSI-027 (first compound 0.253 µM), 0.25; with VE-821 + OSI-027 (first compound 0.8 µM) it was 0.244; with VE-821 + OSI-027 (first compound 2.53 µM) it was 0.246; with VE-821 + OSI-027 (first compound 8 µM) it was 0.239.

NCI-H1703: the relative viability with Ruxolitinib + Bortezomib (first compound 0.08 µM) was determined as 0.412; with Ruxolitinib + Bortezomib (first compound 0.253 µM) it was 0.38; in the test with Ruxolitinib + Bortezomib (first compound 0.8 µM), 0.346; with Ruxolitinib + Bortezomib (first compound 2.53 µM), 0.338; with Ruxolitinib + Bortezomib (first compound 8 µM), 0.245; with Vismodegib + Bortezomib (first compound 0.08 µM), 0.368. In addition, the relative viability turned out to be 0.257 with Vismodegib + Bortezomib (first compound 0.253 µM), 0.372 in the test with Vismodegib + Bortezomib (first compound 0.8 µM), 0.342 with Vismodegib + Bortezomib (first compound 2.53 µM) and 0.401 in the test with Vismodegib + Bortezomib (first compound 8 µM).

With NCI-H1793, the relative viability with VE-821 + Phenformin (first compound 0.08 µM) came out at 0.437; in the test with VE-821 + Phenformin (first compound 0.253 µM), 0.3; with VE-821 + Phenformin (first compound 0.8 µM), 0.325; with VE-821 + Phenformin (first compound 2.53 µM) it was 0.49; in the test with VE-821 + Phenformin (first compound 8 µM), 0.239; with VE-821 + OSI-027 (first compound 0.08 µM), 0.247. The relative viability with VE-821 + OSI-027 (first compound 0.253 µM) is 0.305; in the test with VE-821 + OSI-027 (first compound 0.8 µM) it was 0.232; with VE-821 + OSI-027 (first compound 2.53 µM) it was 0.272; in the test with VE-821 + OSI-027 (first compound 8 µM) it was 0.242.

NCI-H1944: the relative viability in the test with VE-821 + Phenformin (first compound 0.08 µM) worked out at 0.235; in the test with VE-821 + Phenformin (first compound 0.253 µM) it was 0.2; with VE-821 + Phenformin (first compound 0.8 µM) it was 0.172; with VE-821 + Phenformin (first compound 2.53 µM) it was 0.238; in the test with VE-821 + Phenformin (first compound 8 µM), 0.157; in the test with VE-821 + OSI-027 (first compound 0.08 µM), 0.441. Also, the relative viability with VE-821 + OSI-027 (first compound 0.253 µM) turned out to be 0.354; in the test with VE-821 + OSI-027 (first compound 0.8 µM) it was 0.383; in the test with VE-821 + OSI-027 (first compound 2.53 µM), 0.463; in the test with VE-821 + OSI-027 (first compound 8 µM) it was 0.328.

Turning to NCI-H2170, the relative viability in the test with VE-821 + Phenformin (first compound 0.08 µM) came out at 0.416; with VE-821 + Phenformin (first compound 0.253 µM), 0.399; with VE-821 + Phenformin (first compound 0.8 µM), 0.358; with VE-821 + Phenformin (first compound 2.53 µM), 0.412; with VE-821 + Phenformin (first compound 8 µM) it was 0.359; with VE-821 + OSI-027 (first compound 0.08 µM), 0.638. Besides, the relative viability was determined as 0.757 with VE-821 + OSI-027 (first compound 0.253 µM), 0.732 in the test with VE-821 + OSI-027 (first compound 0.8 µM), 0.648 in the test with VE-821 + OSI-027 (first compound 2.53 µM) and 0.636 in the test with VE-821 + OSI-027 (first compound 8 µM).

NCI-H2342: the relative viability with VE-821 + Phenformin (first compound 0.08 µM) was 0.756; with VE-821 + Phenformin (first compound 0.253 µM) it was 0.663; with VE-821 + Phenformin (first compound 0.8 µM), 0.548; in the test with VE-821 + Phenformin (first compound 2.53 µM), 0.508; with VE-821 + Phenformin (first compound 8 µM) it was 0.475; with VE-821 + OSI-027 (first compound 0.08 µM) it was 0.648. The relative viability with VE-821 + OSI-027 (first compound 0.253 µM) was found to be 0.54; with VE-821 + OSI-027 (first compound 0.8 µM) it was 0.639; with VE-821 + OSI-027 (first compound 2.53 µM), 0.584; in the test with VE-821 + OSI-027 (first compound 8 µM) it was 0.527.

SK-MES-1: the relative viability with VE-821 + Phenformin (first compound 0.08 µM) stood at 0.708; in the test with VE-821 + Phenformin (first compound 0.253 µM), 0.626; in the test with VE-821 + Phenformin (first compound 0.8 µM), 0.718; in the test with VE-821 + Phenformin (first compound 2.53 µM), 0.628; in the test with VE-821 + Phenformin (first compound 8 µM), 0.445; in the test with VE-821 + OSI-027 (first compound 0.08 µM), 0.665. In addition, the relative viability in the test with VE-821 + OSI-027 (first compound 0.253 µM) is 0.558; in the test with VE-821 + OSI-027 (first compound 0.8 µM), 0.53; in the test with VE-821 + OSI-027 (first compound 2.53 µM), 0.533; with VE-821 + OSI-027 (first compound 8 µM), 0.233.

Regarding SW 900, the relative viability with VE-821 + Phenformin (first compound 0.08 µM) came out at 0.575; with VE-821 + Phenformin (first compound 0.253 µM) it was 0.555; with VE-821 + Phenformin (first compound 0.8 µM), 0.425; with VE-821 + Phenformin (first compound 2.53 µM) it was 0.711; with VE-821 + Phenformin (first compound 8 µM) it was 0.572; in the test with VE-821 + OSI-027 (first compound 0.08 µM), 0.459. In addition, the relative viability came to 0.444 with VE-821 + OSI-027 (first compound 0.253 µM), 0.527 with VE-821 + OSI-027 (first compound 0.8 µM), 0.552 with VE-821 + OSI-027 (first compound 2.53 µM) and 0.382 in the test with VE-821 + OSI-027 (first compound 8 µM).
